From patent publication US6020374A, “Biologically active synthetic dye compounds” (priority 1998, dated 2000)
≈ marks a conversion by molar mass, not a printed value.

Tests used:
Format in all cases: cell-based
MCF-7 cells = assay: Cell death estimation, cycloheximide-exposed MCF-7 cells (trypan blue); settings: for Effect on percent of dead cells: cells exposed to CX for 48 hours, compared with Control not exposed to CX
Protocol: Subconfluent cultures of MCF-7 cells in 35 mm dishes, were deprived of serum for 20 hours and then exposed to 30 μg/ml cycloheximide in the presence or absence of increasing concentrations of fractionated ATA, crude ATA or EB. After 48 hours, the cells were detached with trypsin. The medium and the detached cells were pooled and centrifuged at 1000×g for 10 mins. Cell viability was estimated by adding an equivalent volume of trypan blue solution to an aliquot of suspended cells. Stained and unstained cells were counted on a hemocytometer (10^3 cells were counted for each determination).
Subconfluent, 20 hours starved MCF-7 cells were exposed to 30 μg/ml
of cycloheximide in the presence of increasing
concentrations of fractionated ATA (0, 6, 12, 25, 50 μg/ml). After
48 hours, percent of dead cells was
determined as described under "Experimental procedures". In the
presence of cycloheximide only, 60-70% of
the cells were dead after 48 hours.
Cultures of […] cells were exposed to 30 μg CX for 48 hours in the presence of EB, ATA, IGF-1, or nothing.

IRS-1 = IRS-1 tyrosine phosphorylation and association with p85/Grb2 in MCF-7 cells; settings: 5 mins., ATA or EB 300 μg/ml, IGF-1 20 ng/ml
Protocol: FIG. 3 is the effect of ATA and EB on tyrosine phosphorylation or IRS-1: MCF-7 cells grown in 100 mm dishes, were treated with ATA or EB, each at 300 μg/ml, or 20 ng/ml IGF-1 for 5 mins. Total cell extracts, solubilized in Buffer A, were subjected to immunoprecipitation with antibodies to IRS-1 (a) or Grb2 (b). The immunocomplexes, precipitated with protein G-Sepharose beads, were subjected to 7.5% SDS-PAGE followed by immunoblotting with a phosphotyrosine antibody, an antibody to the 85-kDa subunit of PI3-kinase or antibody to IRS-1.
(§1) Cells were solubilized in Buffer A or C. Extracts were immunoprecipitated at 4° C. with antibodies to IRS-1, IRS-2, IGF-1 or IR receptor or Grb2, adsorbed on protein A-Sepharose beads. The immunocomplexes were pelleted by centrifugation at 12,000×g and washed twice with Buffer A, and twice with Buffer A containing 0.1% Triton x-100. The pellets were then suspended in Laemmli sample buffer and resolved on 7.5% SDS-PAGE.
(§2) Nitrocellulose blots of proteins were incubated with the antibodies, and proteins were detected by enhanced chemiluminescence using horseradish peroxidase-labeled protein A, horseradish peroxidase-labeled anti rabbit IgG or horseradish peroxidase-labeled anti-mouse IgG.
(§3) MCF-7 cells were stimulated with ATA, EB or IGF-1, solubilized and immunoprecipitated with anti IRS-1 or IRS-2 antibodies, separated by SDS-PAGE and immunoblotted with anti-phosphotyrosine antibody. […] The association of IRS-1 with Grb-2 was evaluated in lysates from treated cells which were immunoblotted with antibodies to either phosphotyrosine or IRS-1.

IRS-2 = IRS-2 association with p85 of PI3-kinase in MCF-7 cells; settings: 5 mins., ATA or EB 300 μg/ml, IGF-1 20 ng/ml
Protocol: FIG. 4 is the effect of ATA and EB on tyrosine phosphorylation of IRS-2: MCF-7 cells were treated as in FIG. 3. Total cell extracts, solubilized in Buffer C, were immunoprecipitated with an antibody to IRS-2. The immunocomplexes, precipitated with protein A-Sepharose beads were subjected to 7.5% SDS-PAGE, followed by immunoblotting with a phosphotyrosine antibody and an antibody to the 85-kDA subunit of PI3-kinase.
as §1, §2, §3

PI3-kinase = assay: Anti-IRS-1 precipitable PI3-kinase activity in MCF-7 cells; settings: 5 mins., ATA or EB 300 μg/ml
Protocol: FIG. 5 is the effect of ATA and EB on the anti-IRS-1 precipitable PI3-kinase activity: Cells were treated as in FIG. 3a. Anti-IRS-1 immunoprecipitates were washed and the pellets incubated with phosphatidyl inositol and γ^32 P-ATP.
Phosphorylation of phosphatidyl inositol was measured as follows. Cells were solubilized in Buffer C and the extracts immunoprecipitated at 4° C. with IRS-1 antibody and adsorbed onto protein A-Sepharose beads. The immunoprecipitates were washed three times with Buffer C and then washed once with Buffer B, Buffer E and Buffer F. The lipid kinase reaction was initated by addition of 100 μl sonicated phosphatidylinositol (10 μg) in kinase buffer (20 mM Hepes, pH 7.5, 10 mM MnCl2 and 10 mM MgCl2) containing 10 μCi [γ^32 P]ATP (3000 ci/m mol; Amersham). The reaction was performed at room temperature for 10 mins. and terminated by the addition of 100 μl 1 N HCl. Lipids were extracted by addition of 200 μl of a 1:1 mixture of chloroform/methanol, followed by vortexing and centrifugation at 14,000×g for 10 mins. The chloroform-containing lipid phase was then re-extracted with 150 μl of a 1:1 mixture of 1N HCl/methanol, followed by vortexing and centrifugation at 14,000×g for 10 mins. The 30 μl of the chloroform phase were resolved by thin layer chromatography using a chloroform/methanol/ammonium hydroxide (90:70:20 v/v)) running buffer. […]

IR = molecular target: T1, IR (Rattus norvegicus, UniProt P15127); assay: Tyrosine phosphorylation of IR in FaO cells; settings: EB; for Tyrosine phosphorylation of IR: 5 mins., ATA at 200 μg/ml
T1 construct: determined in the rat hepatoma cell line FaO; endogenous in cells; host or cells: FaO (rat hepatoma)
Protocol: FIG. 9 is the tyrosine phosphorylation of the IR cascade in Fao cells: A--Immunoblot analysis: Fao cells were deprived of serum for 20 hours, then incubated with EB, ATA, at 200 μg/ml or insulin at 600 ng/ml for 5 mins. Cell extracts were subjected to immunoprecipitation with antibodies to: IR β-subunit (αIR), IRS-1 (αIRS-1) and to IRS-2 (αIRS-2). The immunoprecipitates and total cell extracts were analyzed by SDS-PAGE. Proteins were transferred to nitrocellulose papers, and phosphotyrosine containing proteins were probed with anti-phosphotyrosine antibodies (αP-Tyr), antibody to the 85-kDa subunit of PI3-kinase (αp85) and antibodies to active MAPK (α active MAPK). The immunoblots were visualized by ECL (Amersham).
B--Kinetics of IR phosphorylation: Cells were treated either with 200 μg/ml EB for the indicated times (top panel) or with the indicated concentrations of EB for 5 mins. (middle panel). A 3 hour preincubation with vanadate preceded the 5 min. incubations with EB and insulin (bottom panel).
MCF-7 cells were grown in 35 or 100 mm dishes in DMEM with 5% bovine fetal serum. Rat hepato FaO cells were grown in RPMI 1640 medium supplemented with 10% fetal calf serum. Subconfluent monolayers of MCF-7 cells or FaO cells, were deprived of serum for 20 hours prior to each experiment. The medium was removed, and cells were incubated at 37° C. under the conditions as indicated for each experiment. The reaction was terminated by removing the medium and freezing the monolayers with liquid nitrogen. In some experiments, cells were preincubated with 50 μM sodium orthovanadate for 3 hours.
as §1, §2
The ability of EB and ATA to phosphorylate the IR was determined in the rat hepatoma cell line FaO. […] Phosphorylation is maximal after a 1 min. exposure to 70 μg/ml of EB (FIG. 9B, top and middle panels).

3T3 L1 adipocytes [1] = assay: 2-deoxyglucose uptake in 3T3 L1 adipocytes; settings: 20 mins., EB, ATA 200 μg/ml, insulin 600 ng/ml
Protocol: (§4) FIG. 11 is the metabolic effects in 3T3 L1 adipocytes: Fully differentiated 3T3 L1 adipocytes were incubated with EB, ATA or fuchsin (FUCH) each at 200 μg/ml, or with 600 ng/ml of insulin for 20 mins. (A, B, C) or 5 mins. (D). CON indicates no additive.
A--2-deoxyglucose uptake. Hexose uptake was measured for 10 mins. using 50 μM 2-deoxy-(^3 H) glucose (1 μCi/ml). Non-specific uptake was determined in the presence of cytochalasin B (50 μM).

3T3 L1 adipocytes [2] = assay: Glycogen synthesis in 3T3 L1 adipocytes; settings: 20 mins., EB, ATA 200 μg/ml, insulin 600 ng/ml
Protocol: as §4
B--Glycogen synthesis. Cells were incubated with (^14 C)-glucose for 10 mins. Radioactivity was determined in the precipitated glycogen fraction.

3T3 L1 adipocytes [3] = assay: Lipogenesis in 3T3 L1 adipocytes; settings: 20 mins., EB, ATA 200 μg/ml, insulin 600 ng/ml
Protocol: as §4
C--Lipogenesis. Cells were incubated with 5 mM(U-^14 C) glucose (1 μCi/ml) for 60 mins. Radioactivity was determined in the cellular lipid fraction.

T1 sequence (P15127 764-1383 limits assumed): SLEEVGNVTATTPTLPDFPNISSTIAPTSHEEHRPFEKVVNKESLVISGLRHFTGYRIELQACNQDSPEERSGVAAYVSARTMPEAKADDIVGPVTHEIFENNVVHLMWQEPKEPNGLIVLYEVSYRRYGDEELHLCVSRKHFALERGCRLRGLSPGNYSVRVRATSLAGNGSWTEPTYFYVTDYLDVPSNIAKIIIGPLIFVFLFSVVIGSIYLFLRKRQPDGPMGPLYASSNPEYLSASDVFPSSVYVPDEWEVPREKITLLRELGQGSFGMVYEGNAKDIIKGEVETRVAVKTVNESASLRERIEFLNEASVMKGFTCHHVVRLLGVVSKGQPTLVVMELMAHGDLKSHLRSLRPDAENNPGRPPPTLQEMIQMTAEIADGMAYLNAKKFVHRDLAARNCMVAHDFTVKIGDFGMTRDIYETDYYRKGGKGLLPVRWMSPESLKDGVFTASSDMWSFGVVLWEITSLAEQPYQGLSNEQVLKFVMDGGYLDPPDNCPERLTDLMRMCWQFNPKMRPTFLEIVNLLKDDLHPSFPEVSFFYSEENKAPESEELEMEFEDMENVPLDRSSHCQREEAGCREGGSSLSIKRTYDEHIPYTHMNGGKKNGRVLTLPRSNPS
T1 sequence (P15127 27-759 limits assumed): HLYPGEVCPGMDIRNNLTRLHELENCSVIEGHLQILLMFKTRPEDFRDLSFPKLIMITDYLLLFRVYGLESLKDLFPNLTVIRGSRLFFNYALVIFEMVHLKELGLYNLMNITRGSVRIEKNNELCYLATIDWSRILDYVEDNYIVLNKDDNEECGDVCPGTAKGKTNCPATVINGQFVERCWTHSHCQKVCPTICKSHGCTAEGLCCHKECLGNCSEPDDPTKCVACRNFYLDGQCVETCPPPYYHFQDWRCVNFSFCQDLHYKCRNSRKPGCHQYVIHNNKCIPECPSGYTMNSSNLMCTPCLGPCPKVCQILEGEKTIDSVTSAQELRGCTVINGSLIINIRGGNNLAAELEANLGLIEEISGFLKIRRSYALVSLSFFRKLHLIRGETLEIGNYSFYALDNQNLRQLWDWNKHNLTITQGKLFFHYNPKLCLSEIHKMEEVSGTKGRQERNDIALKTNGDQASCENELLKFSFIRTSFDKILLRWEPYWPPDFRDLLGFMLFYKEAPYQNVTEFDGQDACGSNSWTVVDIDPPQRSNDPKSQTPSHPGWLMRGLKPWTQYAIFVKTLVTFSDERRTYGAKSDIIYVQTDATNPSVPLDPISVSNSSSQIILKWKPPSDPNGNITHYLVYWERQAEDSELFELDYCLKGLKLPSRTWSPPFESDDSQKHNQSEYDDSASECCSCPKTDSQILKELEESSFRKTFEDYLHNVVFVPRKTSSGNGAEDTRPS

| Structure (SMILES) | Percent dead cells (MCF-7 cells; 30 μg CX, 48 hours, ATA 100 μg/ml) | IC50 (MCF-7 cells; Homo sapiens, MCF7, starved MCF-7 cells, 30 μg/ml cycloheximide, 48 hours, read-out: IC50, concentration which inhibits 50% of cell death induced by cycloheximide) | Effect on percent of dead cells (MCF-7 cells) | Association of IRS-1 with Grb-2 (IRS-1) | Association of p85 subunit of PI3-k with IRS-1 (IRS-1) | Phosphorylation of IRS-1 (IRS-1) | Association of p85 subunit of PI3-k with IRS-2 (IRS-2) | PI3-kinase activity (anti-IRS-1 precipitable) (PI3-kinase) | Tyrosine phosphorylation of IR (IR) | Glucose uptake (3T3 L1 adipocytes [1]) | Glycogen synthesis (3T3 L1 adipocytes [2]) | Lipogenesis (3T3 L1 adipocytes [3]) | Concentration of maximal IR phosphorylation (IR) | Exposure time of maximal IR phosphorylation (IR) |
| --- | --- | --- | --- | --- | --- | --- | --- | --- | --- | --- | --- | --- | --- | --- |
| O=C(O)C1=CC(=C(c2ccc(O)c(C(=O)O)c2)c2ccc(O)c(C(=O)O)c2)C=CC1=O [ATA, Aurintricarboxylic acid] | 8 ± 3% | 18 µg/mL (≈ 42.6 µM) | reduced the percent of dead cells to that observed in cells not exposed to CX | IRS-1 co-precipitated with Grb2 | p85 precipitates with IRS-1 | stimulated the phosphorylation of IRS-1 | p85 precipitates | increases PI3-kinase activity similar to IGF-1 | phosphorylates IR on tyrosine residues, similar to insulin | increase glucose uptake | increase | increase | – | – |
| Cc1cc(-c2ccc(N=Nc3ccc4c(S(=O)(=O)O)cc(S(=O)(=O)O)c(N)c4c3O)c(C)c2)ccc1N=Nc1ccc2c(S(=O)(=O)O)cc(S(=O)(=O)O)c(N)c2c1O [EB, Evan's Blue] | – | – | reduced the percent of dead cells to that observed in cells not exposed to CX | IRS-1 co-precipitated with Grb2 | p85 precipitates with IRS-1 | stimulated the phosphorylation of IRS-1 | p85 precipitates | increases PI3-kinase activity similar to IGF-1 | phosphorylates IR on tyrosine residues, similar to insulin | increase glucose uptake | increase | increase | 70 µg/mL | 1 min |
